Marks after values point to notes of the source that are not given here.
Tested on: MC3T3 cells
Assay: Oxygen biosensor assay of adherence and growth of MC3T3 cells on peptide-coated wells
Assay type: cell-based, murine
Conditions: for Abs at 590 nm (relative oxygen consumption), MDL-400 Library / relative oxygen consumption (Absorbance at 590 nm) / Abs at 590 nm (relative oxygen consumption), Controls: 86 hour time point; for Abs at 590 nm (relative oxygen consumption), MDL-400 Library: single peptide, 50 µl of 1 mM stock dried in well, value normalized to the well's initial reading; for impact on MC3T3 growth (result in words): peptide or control adsorbed to surface, compared with uncoated surface or controls; for Abs at 590 nm (relative oxygen consumption), Controls: 25 µl stock of ECM or known peptide control dried in well, same plate
Protocol: To identify peptides in a particular library which positively affected cell growth in cell culture, the library was screened in a growth assay. The selected cells were anchorage-dependent MC3T3 cells, which were grown on tissue culture surfaces which had been pre-coated with peptides of the present invention. The screening medium used to evaluate peptides in the library was a low serum medium allowing evaluation of peptide effects with low interference from undefined materials present in the medium. In the present work, growth of MC3T3 cells was assessed in the presence and absence of the peptides in the library which were present in the form of a dried film on a tissue culture substrate. Growth was evaluated in a basal medium rich in amino acids and containing the necessary vitamins, metals and simple carbon source. After an appropriate incubation time, growth of each peptide-supplemented culture is compared to growth of the unsupplemented culture. The extent of growth was evaluated using a Becton Dickinson oxygen sensor to detect oxygen consumption by the cells. The cell number in each well containing a particular peptide was then assessed indirectly with a flurometer which measured fluorescence generated from a fluoroescent dye using band-pass filters of 465 nm for excitation and 590 nm for emission.
Briefly, the oxygen biosensor is based upon the fluoroscence of ruthenium dye which is quenched in the presence of oxygen. The dye is immobilized within an inert but highly permeable silicone matrix located at the bottom of microtiter wells. […] (Wodnicka, M., Guarino, R. D., Hemperly, J. J. Temmins, M. R., Stitt, D. and Pitner, J. B. (2000) J. of Biomolecular Screening 5:141-152)
MC3T3-E1 is a clonal line of murine calvaria-derived osteoblast (establishement of a clonal osteogenic Cell Line from Newborn Mouse Calvaria in Jpn J. Oral Biol 23, 899 (1981)).
MC3T3 cells were maintained in αMEM (GIBCO Catalog No: 12561) supplemented with 2% fetal calf serum (FCS, inactivated) and 100 units or μg/ml of penicillin/streptomycin for one month prior to use. Cells were routinely seeded at a density of approximately 1×10^4 cells per 20 ml culture media which was placed in a 250 ml canted neck polystyrene tissue culture treated flask (Becton Dickinson). Cells were cultured until approximately 2×10^6 cells were obtainable from each flask, which were resuspended in 5 ml of αMEM with 2% FCS for a final cell concentration of about 5×10^4 cells per 150 μl for peptide screening.
For determining the biological effects of library peptides and appropriate controls on MC3T3 cells, cells (5×10^4/150 μl) were grown in an 96 well oxygen sensor plate treated as described below:
Peptides for screening were obtained from either a MDL-400 library or an MDL-100 library. Fifty microliters of peptides at a 1 mM stock concentration in phosphate buffered saline were placed in wells of a 96 well oxygen sensor plate and dried in a reverse flow air hood overnight […].
Vitrogen-collagen-I was obtained from Cohesion (Palo Alto, Calif., Catalog No. FXP-019) and fibronectin was obtained from Sigma (Catalog No. F-0895). All other extracellular matrix (ECM) compounds were obtained from Becton Dickinson Labware, (Bedford, Mass.). Polylysine was obtained from Becton Dickinson Labware and RGDSP-rhodamine was from AnaSpec Inc. (San Jose, Calif.). Extracellular matrix components (ECM) or known peptides were used at the following stock concentrations:
Twenty-five microliters of stock concentrations of controls and 25 μl of phosphate buffered saline were placed in wells of a 96 well oxygen sensor plate and dried overnight as described above.
Cells grown on 96 well oxygen sensor plates treated as described above were monitored for growth using a Becton Dickinson oxygen biosensor. Growth was monitored at the following time points: 1 hours, 24 hours, 32 hours, 48 hours and 86 hours. Media was changed every three days. […]

Molecule | Abs at 590 nm (relative oxygen consumption), MDL-400 Library | impact on MC3T3 growth (result in words) | Abs at 590 nm (relative oxygen consumption), Controls | other results
AFFKI (Synthetic peptide selected for biological activity) [SEQ ID NO:6] | 2.01* | significant difference in growth | – | –
AFKIF (Synthetic peptide selected for biological activity) [SEQ ID NO:9] | 2.78* | significant difference in growth | – | relative oxygen consumption (Absorbance at 590 nm): 2.78
AKIFF (Synthetic peptide selected for biological activity) [SEQ ID NO:8] | 2.08* | significant difference in growth | – | –
Collagen-IV: extracellular matrix (ECM) control from Becton Dickinson Labware [reference compound] | – | – | 3.14 | relative oxygen consumption (Absorbance at 590 nm): 3.14
Collagen-V: extracellular matrix (ECM) control from Becton Dickinson Labware [reference compound] | – | – | 1.76 | –
FAKFI (Synthetic peptide selected for biological activity) [SEQ ID NO:11] | 2.06* | significant difference in growth | – | –
FIFAK (Synthetic peptide selected for biological activity) [SEQ ID NO:3] | 2.08* | significant difference in growth | – | –
FIKFG (Synthetic peptide selected for biological activity) [SEQ ID NO:2] | 2.38* | significant difference in growth | – | impact on MC3T3 growth (result in words) (listed as FIKFG): positive
Fibronectin [reference compound] | – | – | 2.12 | –
IFFKG (Synthetic peptide selected for biological activity) [SEQ ID NO:1] | 2.53* | significant difference in growth | – | relative oxygen consumption (Absorbance at 590 nm): 2.53; impact on MC3T3 growth (result in words) (listed as IFFKG): positive
KFAFI (Synthetic peptide selected for biological activity) [SEQ ID NO:10] | 2.11* | significant difference in growth | – | –
Laminin [reference compound] | – | – | 2.65 | relative oxygen consumption (Absorbance at 590 nm): 2.65
Polylysine [reference compound] | – | – | 1.08 | –
QVVAK (Synthetic peptide selected for biological activity) [SEQ ID NO:4] | 2.11* | significant difference in growth | – | –
RGDSP-rhodamine [reference compound] | – | – | 1.25 | –
VFPFK (Synthetic peptide selected for biological activity) [SEQ ID NO:7] | 2.06* | significant difference in growth | – | –
Collagen-III: extracellular matrix (ECM) control from Becton Dickinson Labware (protein, UniProt P02461 154-1221, looked up) Collagen alpha-1(III) chain: QYDSYDVKSGVAVGGLAGYPGPAGPPGPPGPPGTSGHPGSPGSPGYQGPPGEPGQAGPSGPPGPPGAIGPSGPAGKDGESGRPGRPGERGLPGPPGIKGPAGIPGFPGMKGHRGFDGRNGEKGETGAPGLKGENGLPGENGAPGPMGPRGAPGERGRPGLPGAAGARGNDGARGSDGQPGPPGPPGTAGFPGSPGAKGEVGPAGSPGSNGAPGQRGEPGPQGHAGAQGPPGPPGINGSPGGKGEMGPAGIPGAPGLMGARGPPGPAGANGAPGLRGGAGEPGKNGAKGEPGPRGERGEAGIPGVPGAKGEDGKDGSPGEPGANGLPGAAGERGAPGFRGPAGPNGIPGEKGPAGERGAPGPAGPRGAAGEPGRDGVPGGPGMRGMPGSPGGPGSDGKPGPPGSQGESGRPGPPGPSGPRGQPGVMGFPGPKGNDGAPGKNGERGGPGGPGPQGPPGKNGETGPQGPPGPTGPGGDKGDTGPPGPQGLQGLPGTGGPPGENGKPGEPGPKGDAGAPGAPGGKGDAGAPGERGPPGLAGAPGLRGGAGPPGPEGGKGAAGPPGPPGAAGTPGLQGMPGERGGLGSPGPKGDKGEPGGPGADGVPGKDGPRGPTGPIGPPGPAGQPGDKGEGGAPGLPGIAGPRGSPGERGETGPPGPAGFPGAPGQNGEPGGKGERGAPGEKGEGGPPGVAGPPGGSGPAGPPGPQGVKGERGSPGGPGAAGFPGARGLPGPPGSNGNPGPPGPSGSPGKDGPPGPAGNTGAPGSPGVSGPKGDAGQPGEKGSPGAQGPPGAPGPLGIAGITGARGLAGPPGMPGPRGSPGPQGVKGESGKPGANGLSGERGPPGPQGLPGLAGTAGEPGRDGNPGSDGLPGRDGSPGGKGDRGENGSPGAPGAPGHPGPPGPVGPAGKSGDRGESGPAGPAGAPGPAGSRGAPGPQGPRGDKGETGERGAAGIKGHRGFPGNPGAPGSPGPAGQQGAIGSPGPAGPRGPVGPSGPPGKDGTSGHPGPIGPPGPRGNRGERGSEGSPGHPGQPGPPGPPGAPGPCCGGVGAAAIAGIGGEKAGGFAPYYG | – | – | 1.45 | –

Source: patent US7344884B2, “Peptides promoting cell adherence, growth and secretion” (Becton, Dickinson and Company, priority 2001, dated 2008)
